According to patent US5902794A (priority 1997, dated 1999):

Legend:
[1] = tested on: R^II cAMP receptor protein (LS-174T); assay: photoaffinity labelling of R^II cAMP receptor protein, LS-174T; format: cell-based, human; details: 10 microM, 3 days; relative to control R^I
Description: (§1) M is marker proteins of known molecular weight.
(§2) The incubations were carried out at 23° C. for 60 minutes in 96-well immunoplates. The reaction mixtures were then irradiated for 30 seconds at 254 nm, placing a Mineralite UVS-11 hand lamp directly onto the plate. The samples were mixed with 25 microliters of 3× sample buffer (3% SDS, 15% beta-mercaptoethanol, 30 mM Tris, 30% glycerol, 1% bromophenol blue saturated solution), boiled for 3 minutes, and centrifuged at 700×g for five minutes. The samples containing 50-100 micrograms of protein were subjected to 0.05% SDS-12% PAGE. The gels were fixed, dried, and exposed to X-ray films overnight. The protein concentrations were determined by the method of Lowry et al., (J. Biol. Chem. 193: 265-275, 1951) with bovine serum albumin as standard.
(§3) The levels of the receptor proteins are expressed relative to the R^I level in the untreated control cells of MDA-MB-231 and LS-174T, which are each set equal to 1.0 O.D.; the scale was expanded to differentiate the lower intensity bands.

[2] = tested on: R^II cAMP receptor protein (MDA-MB-231); assay: photoaffinity labelling of R^II cAMP receptor protein, MDA-MB-231; format: cell-based, human; details: 10 microM, 3 days; relative to control R^I
Description: as §1, §2, §3

[3] = tested on: R^I and R^II cAMP receptor proteins in breast (MDA-MB-231) and colon (LS-174T) cancer cells; assay: R^I and R^II cAMP receptor protein levels in breast and colon cancer lines (FIG. 6); format: cell-based, human
Description: as §1, §2

[4] = tested on: breast and colon cancer cell lines; assay: cell cycle progression of breast and colon cancer cell lines; format: cell-based, human; details: vs untreated control cells
Description: DNA histograms were generated on FACS II by using the DNA intercalating dye propidium iodide as described by Braylan et al. (Cytometry 2: 337-343, 1982). The percentage of cells in each cycle phase was calculated by using a PDP-11/34 computer and software as described by Neckers et al. (Mol. Cell. Biol. 6: 4244-4250, 1986).
A determination was made whether the reduced cell proliferation observed in the cancer cell lines after treatment with the compounds of the present invention is due to a specific block in one phase of the cell cycle.

[5] = tested on: LS-174T colon cancer line; assay: growth inhibition and release from inhibition, LS-174T (FIG. 3); format: cell-based, human
Description: 1×10^5 cells/60 mm dish were seeded, and 24 hours later (Day 0), the medium was removed and fresh medium and additives were added then and every 48 hours thereafter. […] The triplicate cell count for each experimental point never varied by more than 10%.
(§4) All breast cancer cell lines were grown in IMEM supplemented with 10% fetal bovine serum, 20 mM HEPES, penicillin-streptomycin, and extra glutamine. Colon carcinoma cell lines were grown in EMEM supplemented with 10% FBS, EMEM, NEAA, HEPES 20 mM, extra glutamine, and penicillin-streptomycin. The cells were grown at 37° C. in humidified incubators in an atmosphere of 5% CO2.

[6] = tested on: breast and colon cancer cells; assay: effect on cell morphology; format: cell-based, human
Description: The photographs were taken on Day 4, ×160.
Furthermore, the synergistic growth inhibitory effect of C-6 and C-8 analogue combinations was also reflected in the change in the cell morphology.

MDA-MB-231 = assay: growth of MDA-MB-231 cells; format: cell-based; details: Homo sapiens, MDA-MB-231, 72 h; 10 microM, 3 days
Description: as §1, §4
(§5) For cell growth experiments, 2-3×10^5 cells/60 mm dish were seeded, and 24 hours later (Day 0), the medium was removed, and fresh medium and the additives were added then and every 48 hours thereafter The compounds of the present invention were added using 100× concentrated stock solutions. At desired times, cell counts in duplicate were performed on a Coulter counter after harvesting the cells with gentle trypsinization.

HL-60 cells = assay: differentiation markers (surface antigens) in HL-60 cells; format: cell-based, human; details: three days
[7] = tested on: transplantable DMBA-1 and MNA-2 rat mammary carcinomas; assay: short-term assays with transplantable rat mammary carcinomas; format: in vivo; details: 10-mg pellet, within one week
R^I receptor = details: cited from earlier work
NMU-2 = assay: growth of metastatic NMU-2 rat mammary carcinoma; format: in vivo; details: pellet with 10 mg cAMP analogue, day 7
Description: NMU2, a variant of primary hormoneresponsive NMU tumor,
hormoneindependent, transplantable, and metastatic.
(§6) 8Cl-cAMP and DBcAMP were given as a 20mg pellet consisting of 10 mg of […]

[8] = tested on: R^I cAMP receptor protein (LS-174T); assay: photoaffinity labelling of R^I cAMP receptor protein, LS-174T; format: cell-based, human; details: 10 microM, 3 days; control 1.0
Description: as §1, §2, §3

HL-60 = assay: growth inhibition of HL-60; format: cell-based, human
[9] = tested on: R^I cAMP receptor protein (Molt-4); assay: R^I cAMP receptor protein in Molt-4 leukemic cells; format: cell-based, human; details: 5 micromol/L, three days
Description: M marker proteins of known molecular weight. […] The resulting supernatants were used as cell lysates. […] ND=nondetectable.

DMBA-1 = assay: growth of transplantable DMBA-1 rat mammary carcinoma; format: in vivo; details: pellet with 10 mg cAMP analogue, day 7
Description: DMBA-1, a variant of primary hormonedependent DMBA tumor,
hormoneindependent and transplantable.
as §6

R^II = details: cited from earlier work
[10] = tested on: HT-29 colon cancer cell line
LS-174T = assay: growth of LS-174T cells; format: cell-based; details: Homo sapiens, LS174T, 72 h; 10 microM, 3 days
Description: as §1, §4, §5

[11] = tested on: MCF-7 ras breast cancer cell line; assay: synergistic growth inhibition by C-6 and C-8 analogue combination; format: cell-based; details: Homo sapiens, MCF7; alone, 1.0 μM; read-out: percentage growth inhibition of analogue added alone
Description: as §4, §5
Synergism quotient was defined as the net growth inhibitory effect of the analogue combination divided by the sum of the net analogue effects on growth inhibition A quotient of >1 indicates a synergistic effect, while a quotient of <1 indicates an antagonistic effect.
Synergism of growth inhibition was determined by treatment of
cells with C-6 analogues and C-8 analogues alone and in combination at
Day 0 and Day 2 and counting the cell number at Day 4

murine leukemia L1210 = assay: life span of L1210-inoculated BDF1 mice; format: in vivo, mouse
Description: | Infusions by Harvard pumps.

## Nc1ncnc2c1nc(Cl)n2[C@@H]1O[C@@H]2COP(=O)(O)O[C@H]2[C@H]1O [8-Cl-cAMP]
[1]
  R^II relative level: 0.25 ± 0.02
[2]
  R^II relative level: 0.15 ± 0.01
[3]; densitometry
  increase in the ratio of R^II to R^I: two- to three-fold increase
[3]; three days, 10 microM
  48,000 R^I receptor protein, in words: concomitant decrease
  52,000 MW (R^II) receptor protein, in words: increased appreciably
[4]
  fractions of cells in G1, S and G2/M phases, in words: not appreciably different
[5]
  mechanism of growth inhibition / cell viability: decrease in the rate of replication without affecting cell viability
[5]; 8-Cl-cAMP 10 microM or 8-Cl-adenosine 5 microM
  cell growth during treatment: marked reduction in cell growth
[5]; after removal of additives
  growth after cessation of treatment: resumed growth almost immediately
[6]; 1 microM alone, four days
  morphological change: did not induce a change in the cell morphology
[6]; 50 microM, four to five days
  morphological change: characteristic morphological change
MDA-MB-231
  activity at 10 µM: 45%
HL-60 cells
  markers of immature progenitor cells (My7, My9), in words: decrease in markers related to the immature progenitor cells
  monocyte-specific surface antigens (MO2, OKM5), in words: marked increase in the expression
[7]
  growth inhibition: 40-50%
R^I receptor
  site selectivity of binding, R^I: binds to site 2
NMU-2
  Change in mean tumor volume: 1.10 cm^3
[8]
  R^I relative level: 0.20 ± 0.02
HL-60; 20 μmol/L
  growth inhibition (footnote): Seventy percent growth inhibition
HL-60; Homo sapiens, HL-60
  IC50: 100 µM
[9]
  R^I receptor protein, in words: markedly decreased
DMBA-1
  Change in mean tumor volume: 1.60 cm^3
R^II
  site selectivity of binding, R^II: selectively binds to site 1
[10]
  8-Cl-adenosine in cell extracts: no 8-Cl-adenosine was present
  8-Cl-adenosine in cell extracts or medium: 8-Cl-adenosine was not detected
  8-Cl-adenosine in medium: no 8-Cl-adenosine was present
  cell penetration of intact compound: penetrated the cell
LS-174T
  activity at 10 µM: 30%
[11]
  inhibition at 1 µM: 20%
Murine leukemia L1210; 104 mg/kg bolus injection, seven consecutive days
  antitumor effect: no antitumor effect
Murine leukemia L1210; 104 mg/kg bolus, seven consecutive days
  tolerability in L1210-bearing mice: tolerated
Murine leukemia L1210; 104 mg/kg/day constant infusion, five days
  increase in mean life span: 37%
